How the values were obtained:
[1] = test system: Glucokinase known as hexokinase IV (human GK isoform 1, pancreas form and human GK isoform 2, liver form); assay: Glucokinase enzymatic activity assay (G6PDH-coupled, NADH absorbance at 340 nm); format: biochemical; conditions: 5 mM glucose, 1 mM ATP, 37 nM GK, 10 min at room temperature
In short: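 His-tagged human GK isoform 1 (pancreas) or 2 (liver), E. coli-expressed and Ni-purified, 37 nM, with 5 mM glucose, 1 mM ATP, 1 mM NAD and G6PDH in 25 mM Hepes/KCl, 2 mM MgCl2, 1 mM DTT. Ran 10 min at room temperature, read as NADH at 340 nm. AC1.5 is the compound concentration giving 1.5-fold activity.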

male C57BL/6 mice = assay: Blood glucose lowering abilities after single oral administration in male C57BL/6 mouse; format: in vivo; conditions: 30 mg/kg single oral dose, fed ad libitum
Protocol: The glucokinase activators according to the present invention were orally administered in a single dose in the amount of 30 mg/kg body weight to male C57BL/6 mice for 24 h. The media were selected depending on their solubilities from distilled water, pH 1.2 HCl buffer solution, 0.5% methyl cellulose distilled water solution, 10% Gelucire/pH 1.2 HCl buffer solution (1/1). The glucokinase activators were dissolved in the selected media to the medium volume of 0.1 ml/10 g body weight on the basis of the body weight measured on the day of experiment.
Blood glucose was measured by cutting the tail vein before 1 h (time=−1) from the measurement of blood glucose, collecting blood from the tail vein at immediately before the administration of the glucokinase activator (time=0), and at 1, 2, 4, 8, 12, 24 h after administration, loading on the automatic glucometer (Accu-Chek® Active, Roche, USA), dropping 5 μl of the blood to a yellow pad of the Accu-Chek® Active glucose strip, and recording the measured value.
Mice involved in the experiment were divided into groups (n=10, in the case of media group n=4) on one day before the experiment so that each group has uniform average and standard deviation for blood glucose after 4 hour fasting. Mice were fed ad libitum.
The blood glucose lowering abilities in % of the representative compounds with respect to the 100% of media control were shown in the following Table 2.

SMILES | AC1.5 (the compound concentration at which the enzymatic activity is increased by 1.5 times) [1] [nM] | Hypoglycemic ability (% medium): blood glucose AUC for 24 h with respect to 100% of media control (male C57BL/6 mice; medium: distilled water) [%] | Hypoglycemic ability (% medium): blood glucose AUC for 24 h with respect to 100% of media control (male C57BL/6 mice; medium: 0.5% methyl cellulose distilled water solution) [%]
O=C(O)CC[C@@H]1CSC(c2cc3cccc(NC4CCCC4)c3[nH]2)=N1 [Example 164, 3-[(R)-2-(7-cyclopentylamino-1H-indol-2-yl)-4,5-dihydro-thiazol-4-yl]-propionic acid] | 25 | 73 | 
O=C(CO)N1CCN(CC[C@@H]2CSC(c3cc4cc(Cl)cc(NC5CCCC5)c4[nH]3)=N2)CC1 [Example 99, 1-(4-{2-[(R)-2-(5-chloro-7-cyclopentylamino-1H-indol-2-yl)-4,5-dihydro-thiazol-4-yl]-ethyl}-piperazin-1-yl)-2-hydroxy-ethanone] | 5 | 72 | 
Cc1cc(NC2CCCC2)c2[nH]c(C3=N[C@H](CCC(=O)O)CS3)cc2c1 [Example 158, 3-[(R)-2-(7-cyclopentylamino-5-methyl-1H-indol-2-yl)-4,5-dihydro-thiazol-4-yl]-propionic acid] | 16 | 66 | 
O=C(O)CC[C@@H]1CSC(c2cc3cc(Oc4ccccc4)cc(NC4CCCC4)c3[nH]2)=N1 [Example 159, 3-[(R)-2-(7-cyclopentylamino-5-phenoxy-1H-indol-2-yl)-4,5-dihydro-thiazol-4-yl]-propionic acid] | 17 | 63 | 
Clc1cc(NC2CCCC2)c2[nH]c(C3=N[C@H](CCN4CCNCC4)CS3)cc2c1 [Example 96, {5-chloro-2-[(R)-4-(2-piperazin-1-yl-ethyl)-4,5-dihydro-thiazol-2-yl]-1H-indol-7-yl}-cyclopentyl-amine] | 5 | 81 | 
O=C(O)C[C@@H]1CSC(c2cc3cccc(NC4CCCC4)c3[nH]2)=N1 [Example 42, [(R)-2-(7-cyclopentylamino-1H-indol-2-yl)-4,5-dihydro-thiazol-4-yl]acetic acid] |  | 57 | 
O=C(O)C[C@@H]1CSC(c2cc3cccc(Oc4ccccc4)c3[nH]2)=N1 [Example 174, [(R)-2-(7-phenoxy-1H-indol-2-yl)-4,5-dihydro-thiazol-4-yl]-acetic acid] |  | 51 | 
Cc1cc(NC2CCCC2)c2[nH]c(C3=N[C@H](CC(=O)O)CS3)cc2c1 [Example 61, [(R)-2-(7-cyclopentylamino-5-methyl-1H-indol-2-yl)-4,5-dihydro-thiazol-4-yl]-acetic acid] | 11 | 54 | 
CCOC(=O)C[C@@H]1CSC(c2cc3cc(F)cc(NC4CCCC4)c3[nH]2)=N1 [Example 38, [(R)-2-(7-cyclopentylamino-5-fluoro-1H-indol-2-yl)-4,5-dihydro-thiazol-4-yl]acetic acid ethyl ester] | 18 |  | 71
CCOc1cc(NC2CCCC2)c2[nH]c(C3=N[C@H](CC(=O)O)CS3)cc2c1 [Example 52, [(R)-2-(7-cyclopentylamino-5-ethoxy-1H-indol-2-yl)-4,5-dihydro-thiazol-4-yl]acetic acid] | 20 | 62 | 
CCOc1cc(NC2CCCC2)c2[nH]c(C3=N[C@H](CCC(=O)O)CS3)cc2c1 [Example 167, 3-[(R)-2-(7-cyclopentylamino-5-ethoxy-1H-indol-2-yl)-4,5-dihydro-thiazol-4-yl]-propionic acid] | 28 | 64 | 
O=C(O)C[C@@H]1CSC(c2cc3cc(Cl)cc(NC4CCCC4)c3[nH]2)=N1 [Example 27, [(R)-2-(5-chloro-7-cyclopentylamino-1H-indol-2-yl)-4,5-dihydro-thiazol-4-yl]acetic acid] | 4 | 75 | 
O=C(O)C[C@@H]1CSC(c2cc3cc(Br)cc(NC4CCCC4)c3[nH]2)=N1 [Example 33, [(R)-2-(5-bromo-7-cyclopentylamino-1H-indol-2-yl)-4,5-dihydro-thiazol-4-yl]acetic acid] |  | 81 | 
O=C(O)C[C@@H]1CSC(c2cc3cc(F)cc(NC4CCCC4)c3[nH]2)=N1 [Example 37, [(R)-2-(7-cyclopentylamino-5-fluoro-1H-indol-2-yl)-4,5-dihydro-thiazol-4-yl]acetic acid] |  | 67 | 
O=C(O)C[C@@H]1CSC(c2cc3cc(Oc4ccccc4)cc(NC4CCCC4)c3[nH]2)=N1 [Example 54, [(R)-2-(7-cyclopentylamino-5-phenoxy-1H-indol-2-yl)-4,5-dihydro-thiazol-4-yl]-acetic acid] | 18 | 52 | 
